Data as given in patent US12234239B2, “Crystalline forms of 2-(3-(4-(7H-pyrrolo[2,3-d]pyrimidin-4-yl)-1H-pyrazol-1-yl)-1-(cyclopropylsulfonyl)azetidin-3-yl)acetonitrile” (Elanco US, Inc., priority 2019, dated 2025).

Tested on: pruritus and skin lesions associated with allergic dermatitis in dogs
Assay: Control of pruritus and skin lesions associated with allergic dermatitis in dogs (four-arm, blinded, randomized, placebo-controlled study)
Type: in vivo
Conditions: for Treatment success LSMean (response rate): oral tablets (Form II) once daily, success = 2 unit or more reduction from baseline on 10-unit owner-assessed pruritus VAS in at least 5 of first 7 treatment days, generalized linear mixed model
Method: Control of Pruritus and Skin Lesions Associated with Allergic Dermatitis in Dogs
This study evaluated 2-(3-(4-(7H-pyrrolo[2,3-d]pyrimidin-4-yl)-1H-pyrazol-1-yl)-1-(cyclopropylsulfonyl)azetidin-3-yl)acetonitrile for control of pruritus and skin lesions associated with allergic dermatitis in dogs.
Oral tablets were prepared containing Form II 2-(3-(4-(7H-pyrrolo[2,3-d]pyrimidin-4-yl)-1H-pyrazol-1-yl)-1-(cyclopropylsulfonyl)azetidin-3-yl)acetonitrile, as follows. Oral tablet blends were prepared containing crystal Form II 2-(3-(4-(7H-pyrrolo[2,3-d]pyrimidin-4-yl)-1H-pyrazol-1-yl)-1-(cyclopropylsulfonyl)azetidin-3-yl)acetonitrile, microcrystalline cellulose, pregelantinized starch, dicalcium phosphate dehydrate, oxide pigment, and magnesium stearate. The tablet blends were pressed giving tablet cores containing 2.4 mg, 3.6 mg, 5.4 mg, and 16 mg of crystal Form II 2-(3-(4-(7H-pyrrolo[2,3-d]pyrimidin-4-yl)-1H-pyrazol-1-yl)-1-(cyclopropylsulfonyl)azetidin-3-yl)acetonitrile, as well as a placebo core. The tablet cores were coated with a mixture containing water and Opadry 20A150011 Red, thereby giving the final oral tablets for the study.
A four-arm, blinded, randomized, placebo-controlled study was conducted to assess the efficacy of daily administration of 2-(3-(4-(7H-pyrrolo[2,3-d]pyrimidin-4-yl)-1H-pyrazol-1-yl)-1-(cyclopropylsulfonyl)azetidin-3-yl)acetonitrile for control of pruritus and skin lesions associated with allergic dermatitis in dogs. Subjects were randomized to one of the following treatment arms: API-containing Tablets, 0.25-0.40 mg/kg Body Weight; API-containing Tablets, 0.40-0.60 mg/kg Body Weight; API-containing Tablets, 0.60-0.80 mg/kg Body Weight; and Placebo Tablets, 0.0 mg/kg Body Weight.
Dogs enrolled in the study received once daily treatment for approximately 28 days. Baseline data (clinical history, concomitant therapies, body weight, physical examinations and assessments of pruritus and atopic dermatitis) were collected for each dog at enrollment (Day 0). Additional health assessments, physical examinations, body weight measurements, assessments of pruritus and atopic dermatitis, and collection of blood samples for hematology, serum chemistry and pharmacokinetic (PK) analysis occurred consistent with standard testing protocols.
The primary effectiveness variable was treatment success. A treatment success was defined as a 2 unit or more reduction from baseline on the 10-unit owner-assessed pruritus Visual-Analog Scale (VAS) in at least 70% of the first 7 treatment days (i.e., in at least 5 of the first 7 treatment days). Dogs withdrawn from the study within the first 7 days of treatment due to a perceived lack of effectiveness were considered treatment failures.
Random effects were fit for site and site treatment with a variance component covariance structure and a compound symmetry covariance structure was fit for individual dogs.

## N#CCC1(n2cc(-c3ncnc4[nH]ccc34)cn2)CN(S(=O)(=O)C2CC2)C1 [2-(3-(4-(7H-pyrrolo[2,3-d]pyrimidin-4-yl)-1H-pyrazol-1-yl)-1-(cyclopropylsulfonyl)azetidin-3-yl)acetonitrile]
0.25-0.40 mg/kg
  Treatment success LSMean (response rate): 0.4640
0.40-0.60 mg/kg
  Treatment success LSMean (response rate): 0.5590
Highest dose group 0.6-0.8 mg/kg once daily, minimum effective dose = success in at least 50% of the dogs
  primary endpoint for treatment success: achieved the primary endpoint for treatment success
Low dose (0.24-0.4 mg/kg) once daily
  estimated marginal mean response rate compared with placebo rate: higher than the placebo rate
Medium dose (0.4-0.6 mg/kg) once daily
  estimated marginal mean response rate compared with placebo rate: higher than the placebo rate
Once daily 0.6-0.8 mg/kg, at day 28
  improvement in lesion scores: significant improvement in lesion scores
Once daily dosing with 0.6-0.8 mg/kg, from first dose
  improvements in pruritus: significant improvements in pruritus from first dose
